Assay results as given in patent US7442791B2, “Aminoalkylamide substituted cyclohexyl derivatives” (Hoffmann-La Roche Inc., priority 2003, dated 2008).
Read-outs that look alike come from different tables or passages of the source.

Columns and labels:
[1] = biological target: T1, Human Liver Microsomal 2,3-oxidosqualene-lanosterol Cyclase (OSC) (Homo sapiens, UniProt P48449); experiment: Inhibition of human liver microsomal 2,3-oxidosqualene-lanosterol cyclase (OSC); format: biochemical; settings: read-out: percentage OSC inhibition against controls
T1 construct: Liver microsomes from a healthy volunteer were prepared in sodium phosphate buffer (pH 7.4); from tissue; host or cells: human liver microsomes (healthy volunteer)
T1 sequence (P48449 1-732): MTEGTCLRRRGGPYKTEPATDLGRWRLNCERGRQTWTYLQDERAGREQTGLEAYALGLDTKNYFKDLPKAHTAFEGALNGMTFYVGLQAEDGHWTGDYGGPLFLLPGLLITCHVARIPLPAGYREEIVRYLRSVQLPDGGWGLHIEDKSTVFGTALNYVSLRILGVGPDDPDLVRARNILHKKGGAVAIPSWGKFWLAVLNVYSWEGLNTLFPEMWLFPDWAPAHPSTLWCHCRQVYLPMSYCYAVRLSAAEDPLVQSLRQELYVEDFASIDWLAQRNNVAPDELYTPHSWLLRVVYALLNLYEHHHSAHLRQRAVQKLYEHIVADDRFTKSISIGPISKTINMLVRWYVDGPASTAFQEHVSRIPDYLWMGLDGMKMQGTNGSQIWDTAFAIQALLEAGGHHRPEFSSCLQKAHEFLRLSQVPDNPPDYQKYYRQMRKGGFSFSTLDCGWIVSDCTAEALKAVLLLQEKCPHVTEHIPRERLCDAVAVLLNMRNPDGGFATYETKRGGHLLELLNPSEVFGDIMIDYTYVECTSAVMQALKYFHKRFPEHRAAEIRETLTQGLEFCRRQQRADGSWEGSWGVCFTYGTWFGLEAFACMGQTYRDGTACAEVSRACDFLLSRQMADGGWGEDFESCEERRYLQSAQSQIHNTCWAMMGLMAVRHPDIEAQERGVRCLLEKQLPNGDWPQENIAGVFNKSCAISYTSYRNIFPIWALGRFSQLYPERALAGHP
Experimental: Inhibition of Human Liver Microsomal 2,3-oxidosqualene-lanosterol Cyclase (OSC)
Liver microsomes from a healthy volunteer were prepared in sodium phosphate buffer (pH 7.4). The OSC activity was measured in the same buffer, which also contained 1 mM EDTA and 1 mM dithiothreitol. The microsomes were diluted to 0.8 mg/ml protein in cold phosphate buffer. Dry [^14C]R,S-monooxidosqualene (MOS, 12.8 mCi/mmol) was diluted to 20 nCi/μl with ethanol and mixed with phosphate buffer-1% BSA (bovine serum albumin). A stock solution of 1 mM test substance in DMSO was diluted to the desired concentration with phosphate buffer-1% BSA. 40 μl of microsomes were mixed with 20 μl of the solution of the test substance and the reaction was subsequently started with 20 μl of the [^14C]R,S-MOS solution. The final conditions were 0.4 mg/ml of microsomal proteins and […] of [^14C]R,S-MOS in phosphate buffer, pH 7.4, containing 0.5% albumin, DMSO<0.1% and ethanol<2%, in a total volume of 80 μl.
After 1 hour at 37° C. the reaction was stopped by the addition of 0.6 ml of 10% KOH-methanol, 0.7ml of water and 0.1 ml of hexane:ether (1:1, v/v) which contained 25 μg of non-radioactive MOS and 25 μg of lanosterol as carriers. After shaking, 1 ml of hexane:ether (1:1, v/v) was added to each test tube, these were again shaken and then centrifuged. The upper phase was transferred into a glass test tube, the lower phase was again extracted with hexane:ether and combined with the first extract. The entire extract was evaporated to dryness with nitrogen, the residue was suspended in 50 μl of hexane:ether and applied to a silica gel plate. Chromatographic separation was effected in hexane:ether (1:1, v/v) as the eluent. The Rf values for the MOS substrate and the lanosterol product were 0.91 and, respectively, 0.54. After drying, radioactive MOS and lanosterol were observed on the silica gel plate. The ratio of MOS to lanosterol was determined from the radioactive bands in order to determine the yield of the reaction and OSC inhibition.
The test was carried out on the one hand with a constant test substance concentration of 100 nM and the percentage OSC inhibition against controls was calculated.
In addition, the test was carried out with different test substance concentrations and subsequently the IC50 value was calculated, i.e. the concentration required to reduce the conversion of MOS into lanosterol to 50% of the control value.

[2] = constant test substance concentration of 100 nM, human liver microsomes, [14C]R,S-MOS, 1 hour at 37° C.

SMILES	inhibition at 0.1 µM [1, 2] [%]	other results
CN(C)CCN(C)C(=O)[C@H]1CC[C@H](CN(C)C(=O)Oc2ccc(Cl)cc2)CC1 [Example 5.4, trans-{4-[(2-dimethylamino-ethyl)-methyl-carbamoyl]-cyclohexylmethyl}-methyl-carbamic acid 4-chloro-phenyl ester]		inhibition at 0.1 µM [1]: 51%
CN(C)CCN(C)C(=O)CC[C@H]1CC[C@H](CN(C)S(=O)(=O)c2ccc(C(F)(F)F)cc2)CC1 [Example 22.6, trans-N-(2-dimethylamino-ethyl)-N-methyl-3-(4-{[methyl-(4-trifluoromethyl-benzenesulfonyl)-amino]-methyl}-cyclohexyl)-propionamide]	56	
CN(C)CCN(C)C(=O)[C@H]1CC[C@H](N(C)S(=O)(=O)c2ccc(C(F)(F)F)cc2)CC1 [Example 4.4, trans-4-[methyl-(4-trifluoromethyl-benzenesulfonyl)-amino]-cyclohexanecarboxylic acid (2-dimethylamino-ethyl)-methyl-amide]		melting point: 83 °C
CN(C)CCN(C)C(=O)CCO[C@H]1CC[C@H](N(C)S(=O)(=O)c2ccc(C(F)(F)F)cc2)CC1 [Example 1.6, trans-N-(2-dimethylamino-ethyl)-N-methyl-3-{4-[methyl-(4-trifluoromethyl-benzenesulfonyl)-amino]-cyclohexyloxy}-propionamide]	61	
CCN(CCO)CCN(C)C(=O)[C@H]1CC[C@H](CCN(C)c2ncc(Br)cn2)CC1 [Example 15.4, trans-4-{2-[(5-bromo-pyrimidin-2-yl)-methyl-amino]-ethyl}-cyclohexanecarboxylic acid {2-[ethyl-(2-hydroxy-ethyl)-amino]-ethyl}-methyl-amide]	65	
